# According to US20250002450A1, “CATIONIC STEROID COMPOUNDS, METHOD OF OBTAINING THEREOF, FORMULATIONS COMPRISING THEREOF AND THEIR USES” (UNIVERSIDADE DO PORTO, priority 2021, published 2025):
# Legend:
# C. albicans ATCC 10231 [1] = test: Time-kill kinetics; type: cell-based, Candida albicans
# Protocol: As mentioned for antibacterial activity, time-kill plots allow the evaluation of killing of a microbial isolate over time and establishing how much exposure time is needed in order to achieve a fungicidal effect, which is usually defined by ≥99.9% killing of the initial inoculum and is determined by a 3-log10-unit decrease in CFU/mL. […] Time-kill kinetics of compound 1 were evaluated for C. albicans ATCC 10231.
# Determination of killing of C. albicans ATCC 10231 over time was carried out using the time-kill method, as previously described. This assay was performed for concentrations of compound 1 ranging between 64 and 8 μg/mL. Colonies from 24 h cultures in SDA were suspended in sterile saline and adjusted to 0.5 McFarland. An aliquot of this suspension was then added to each tube of RPMI alone (control) or RPMI plus an appropriate amount of compound 1, to give an inoculum of approximately 10^5 CFU/mL in a final volume of 10 mL. Tubes were incubated at 36° C. in a water bath with shaking and vortexed prior to removing each sample for the determination of colony counts. At predetermined time points (30 min, 1, 1.5, 2, 3, 4, 6, 8, and 12 h), 100 μL aliquots were aseptically removed from each tube, serially diluted in sterile saline, and spread on SDA plates. Colony counts were determined following incubation at 36° C. for 24 to 48 h and log10 CFU/mL was plotted against time. At least three independent experiments were performed.
# C. albicans ATCC 10231 [2] = test: Ergosterol binding assay; type: cell-based, Candida albicans; conditions: 400 μg/mL ergosterol
# Protocol: Ceragenins have been described to interact with the lipophilic environment of microbial membranes and ergosterol is the major sterol component of fungal plasma membrane, and the target of several antifungals. As such, in order to evaluate the ability of compound 1 to bind to membrane ergosterol of C. albicans ATCC 10231, MICs were determined in the absence and presence of exogenous ergosterol ([FIG. 10]). If the tested compound has the ability to perturb membrane integrity by binding to ergosterol, is expected that, in the presence of exogenous ergosterol, the compound binds to it, decreasing the amount of compound available to bind to membrane ergosterol, therefore increasing the MIC. Amphotericin B was used as a positive control for this assay and MICs obtained were 8 times higher in the presence of 400 μg/mL of exogenous ergosterol than in its absence (2 to 16 μg/mL, data not shown). […] The ability of compound 1 to bind to membrane ergosterol of C. albicans ATCC 10231, was evaluated by the ergosterol binding assay, as previously described. Briefly, MICs of compound 1 were determined by broth microdilution, as described above, in the absence and presence of ergosterol (Sigma-Aldrich, St. Louis, MO, USA) at a final concentration of 400 μg/mL. Ergosterol was prepared immediately before being added to the plates, by maceration and dissolution in DMSO. The formed emulsion was then homogenized, heated to increase solubility, and diluted in RPMI. Amphotericin B was used as positive control. Plates were incubated at 35° C. for 48 h and MICs were determined as described above. At least two independent assays were performed.
# C. albicans ATCC 10231 [3] = test: Checkerboard synergy with antifungal drugs; type: cell-based, Candida albicans
# Protocol: According to the consensus interpretation of FICI values, FICI≤0.5 is interpreted as ‘synergy’. […] Inoculum and compound solutions were prepared as described for antifungal susceptibility testing. Fractional inhibitory concentrations (FIC) were calculated as follows: FIC of compound=MIC of compound combined with antifungal/MIC compound alone, and FIC antifungal=MIC of antifungal combined with compound/MIC of antifungal alone. The FIC index (FICI) was calculated as the sum of each FIC and interpreted as follows: FICI≤0.5, ‘synergy’; 0.5<FICI≤4, ‘no interaction’; FICI>4, ‘antagonism’. At least three independent experiments were performed and mean FICI was calculated.
# S. aureus ATCC 29213 = test: Bacterial biofilm formation inhibition (crystal violet); type: cell-based, Staphylococcus aureus; conditions: 2×MIC and MIC, 24 h
# Protocol: In an embodiment, the antibiofilm activity of compound 1 was performed as follows. Given its bactericidal effect, the impact of compound 1 on the biofilm formation of reference strains was studied.
# The effect of compound 1 on bacterial biofilm formation was evaluated through quantification of total biomass, using the crystal violet method, as previously described ([FIG. 6]). […] A control with an appropriate concentration of DMSO, as well as a negative control (TSB alone) was included. Sterile 96-well flat-bottomed untreated polystyrene microtiter plates were used. After a 24 h incubation at 37 degrees C., the biofilms were heat-fixed for 1 h at 60 degrees C. and stained with 0.5% (v/v) crystal violet (Quimica Clinica Aplicada, Amposta, Spain) for 5 min. The stain was resolubilized with 33% (v/v) acetic acid (Acetic acid 100%, AppliChem, Darmstadt, Germany) and the biofilm biomass was quantified by measuring the absorbance of each sample at 570 nm in a microplate reader (Thermo Scientific Multiskan® EX, Thermo Fisher Scientific, Waltham, MA, USA). The background absorbance (TSB or TSB+1% glucose without inoculum) was subtracted from the absorbance of each sample and the data are presented as a percentage of control. Three independent assays were performed for reference strains, with triplicates for each experimental condition.
# [4] = system: Enterococcuss faecalis ATCC 29212; test: Kirby-Bauer disk diffusion; type: cell-based, Enterococcus faecalis; conditions: 15 μg per disk
# Protocol: (§1) An initial screening of the antibacterial activity of the compounds was performed by the Kirby-Bauer disk diffusion method, as recommended by the Clinical and Laboratory Standards Institute (CLSI). Briefly, sterile 6 mm blank paper disks (Oxoid, Basingstoke, England) impregnated with 15 μg of each compound were placed on inoculated MH agar plates. A blank disk with dimethylsulfoxide (DMSO) was used as a negative control. MH inoculated plates were incubated for 18-20 h at 37 degrees C. At the end of incubation, the inhibition halos where measured. The MIC was used to determine the antibacterial activity of each compound, in accordance with the recommendations of the CLSI. Two-fold serial dilutions of the compounds were prepared in Mueller-Hinton Broth 2 (MHB2—Sigma-Aldrich, St. Louis, MO, USA) within the concentration range of 0.062-64 μg/mL. CTX ranging between 0.031-16 μg/mL was used as a control. Sterility and growth controls were included in each assay. Purity checks and colony counts of the inoculum suspensions were also performed in order to ensure that the final inoculum density closely approximates the intended number (5×10^5 CFU/mL). The MIC was determined as the lowest concentration of compound that inhibited growth of the bacteria. The MBC was assessed by spreading 10 μL of culture collected from wells showing no visible growth on MH agar plates. […]
# E. faecalis B3/101 (VRE) = test: Kirby-Bauer disk diffusion; type: cell-based, Enterococcus faecalis; conditions: 15 μg per disk
# Protocol: as §1
compound,measurement,setting,value
"C[C@H](CCC(=O)NCCN)[C@H]1CC[C@H]2[C@@H]3CC[C@@H]4C[C@H](O)CC[C@]4(C)[C@H]3C[C@H](O)[C@]12C [Compound 1, (R)—N-(2-aminoethyl)-4-((3R,5R,8R,9S,10S,12S,13R,14S,17R)-3,12-dihydroxy-10,13-dimethylhexadecahydro-1H-cyclopenta[a]phenanthren-17-yl) pentanamida]",exposure time to fungicidal effect (≥99.9% killing),C. albicans ATCC 10231 [1]; 64 μg/mL (MIC),approximately 4 h
same,additional time to produce an additional 1-log10-unit decrease in CFU/mL,"C. albicans ATCC 10231 [1]; 64 μg/mL, after the first 2 h",10 h
same,decrease in CFU/mL each hour,"C. albicans ATCC 10231 [1]; 64 μg/mL, until 2 h of exposure",1 log10-unit
same,type of killing (in words),C. albicans ATCC 10231 [1]; 64-8 μg/mL,concentration-dependent killing
same,effect of exogenous ergosterol on MICs (in words),C. albicans ATCC 10231 [2],unaffected
same,effect on trailing caused by fluconazole at its MIC (in words),"C. albicans ATCC 10231 [3]; 16 μg/mL of compound 1 (¼×MIC), fluconazole 2 μg/mL",eliminated trailing
same,fractional inhibitory concentration index (FICI),C. albicans ATCC 10231 [3]; with amphotericin B,≤ 0.5
same,fractional inhibitory concentration index (FICI),C. albicans ATCC 10231 [3]; with fluconazole,≤ 0.5
same,biofilm formation (in words),S. aureus ATCC 29213,significantly inhibited
same,Disk diffusion,[4],13 mm
same,Disk diffusion,E. faecalis B3/101 (VRE),11 mm
